Laboratory results reported in paper PMC5013724 (Biochemistry, 2016).
Values after ≈ are worked out from the molar mass of the structure shown. “Also recorded” adds a separate entry of the source. Read-outs that look alike come from different tables or passages of the source.

Experiments:
[1] = target: TFR-PR^S17 precursor, p6pol/PR^S17 site (Human immunodeficiency virus type 1, UniProt P12497, E523D/G536V/I542V/L578M/M524I/M534L/N525D/V570S, form not given); assay type: biochemical, HIV-1; details: for Autoprocessing in the presence of inhibitor / Inhibition of the p6pol/PR site: 60 min; for Inhibition of autoprocessing of TFR-PR^S17, initial screening: after 60 min, overall autoprocessing
[2] = test system: TFR-PR^S17 precursor, p6pol/PR^S17 site; assay type: biochemical, HIV-1; details: p6pol/PR^S17 site
[3] = test system: mature PR^S17
[4] = target: wild-type PR; details: read-out: Inhibition of PR Ki, published sources, similar values from different sources averaged, ref [48]–[50],[30]; cited from earlier work
[5] = target: PR20; details: read-out: Ki for PR20; ref [34]; cited from earlier work
[6] = test system: mature PR^S17; assay type: biochemical, HIV-1; details: Ki for PR^S17 (kinetics) / Ki for PR
[7] = physchem; details: pH 5, aqueous buffer
[8] = test system: wild type TFR-PR precursor; details: read-out: IC50 for inhibition of autoprocessing of the wild type precursor; during expression in E. coli; ref [16]; cited from earlier work
[9] = test system: TFR-PR20; details: up to 150 μM inhibitor, expressed in E. coli; ref [16]; cited from earlier work
[10] = target: TFR-PR^S17 precursor, TFP/p6pol site (Human immunodeficiency virus type 1, UniProt P12497, E523D/G536V/I542V/L578M/M524I/M534L/N525D/V570S, form not given); assay type: biochemical, HIV-1; details: 60 min
[11] = inhibitor 70 μM (limit of solubility)

| Structure (SMILES) | Inhibition of autoprocessing of TFR-PR^S17, initial screening ([1]; inhibitor 50 μM) | Difference in inhibition [autoprocessing, IC50/mature PR^S17, Ki] [2] | Ki [4] | solubility [7] | further results |
| --- | --- | --- | --- | --- | --- |
| CC(C)CN(C[C@@H](O)[C@H](Cc1ccccc1)NC(=O)O[C@H]1CCOC1)S(=O)(=O)c1ccc(N)cc1 [APV, amprenavir] | almost complete inhibition | 682 | 0.2 nM |  | Autoprocessing in the presence of inhibitor ([1]; inhibitor 5 μM): complete autoprocessing; Fold higher affinity for PR^S17 relative to PR20 [3]: 16 fold; Relative resistance (PR^S17/PR) ([3]; Ki for PR^S17 (ITC) / Ki for PR): 55; Ki [5]: ~178 nM |
| COC(=O)N[C@H](C(=O)N[C@@H](Cc1ccccc1)[C@@H](O)CN(Cc1ccc(-c2ccccn2)cc1)NC(=O)[C@@H](NC(=O)OC)C(C)(C)C)C(C)(C)C [ATV, atazanavir] |  | 214 | 0.035 nM | 42 µM (≈ 29.6 µg/mL) | Relative resistance (PR^S17/PR) [6]: 2000; Autoprocessing in the presence of inhibitor ([1]; inhibitor 10 μM): complete autoprocessing |
| CC(C)CN(C[C@@H](O)[C@H](Cc1ccccc1)NC(=O)O[C@H]1CO[C@H]2OCC[C@H]21)S(=O)(=O)c1ccc(N)cc1 [DRV, darunavir] | almost complete inhibition |  | 0.005 nM |  | IC50 [8]: 1000 to 2000 nM; Inhibition of autoprocessing of the PR20 precursor [9]: no inhibition; also recorded: not inhibited |
| CC(C)(C)NC(=O)[C@@H]1CN(Cc2cccnc2)CCN1C[C@@H](O)C[C@@H](Cc1ccccc1)C(=O)N[C@H]1c2ccccc2C[C@H]1O [IDV, indinavir] | partial inhibition |  | 0.25 nM |  | Inhibition of the p6pol/PR site ([1]; inhibitor 50 μM): ~ 50%; Inhibition of the TFP/p6pol site ([10]; inhibitor 50 μM): insignificant inhibition |
| Cc1cccc(C)c1OCC(=O)N[C@@H](Cc1ccccc1)[C@@H](O)C[C@H](Cc1ccccc1)NC(=O)[C@H](C(C)C)N1CCCNC1=O [LPV, lopinavir] | almost no inhibition |  | 0.02 nM | 70 µM (≈ 44 µg/mL) | Inhibition of the p6pol/PR site [1, 11]: ~ 50%; Inhibition of the TFP/p6pol site [10, 11]: insignificant inhibition |
| Cc1c(O)cccc1C(=O)N[C@@H](CSc1ccccc1)[C@H](O)CN1C[C@H]2CCCC[C@H]2C[C@H]1C(=O)NC(C)(C)C [NFV, nelfinavir] |  | >7.2 | 0.36 nM | 42 µM (≈ 23.8 µg/mL) | Relative resistance (PR^S17/PR) [6]: 16300 |
| CC(C)c1nc(CN(C)C(=O)N[C@H](C(=O)N[C@@H](Cc2ccccc2)C[C@H](O)[C@H](Cc2ccccc2)NC(=O)OCc2cncs2)C(C)C)cs1 [RTV, ritonavir] | almost no inhibition |  |  |  |  |
| CC(C)(C)NC(=O)[C@@H]1C[C@@H]2CCCC[C@@H]2CN1C[C@@H](O)[C@H](Cc1ccccc1)NC(=O)[C@H](CC(N)=O)NC(=O)c1ccc2ccccc2n1 [SQV, saquinavir] | almost no inhibition |  | 0.39 nM |  | IC50 [8]: 1000 to 2000 nM; Inhibition of autoprocessing of the PR20 precursor [9]: no inhibition; also recorded: not inhibited |
